Measurements as given in PubChem BioAssay (NCI).
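Assay format: 96-well plates, 48-hour exposure. The concentration for 50% growth inhibition is given as GI50. TGI marks complete inhibition of growth.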

Key:
Assay in all cases: DTP human tumour cell line panel, 48 h
[1] = test system: 786-0 renal
[2] = test system: A498 renal
[3] = test system: A549 NSCLC
[4] = test system: ACHN renal
[5] = test system: BT-549 breast
[6] = test system: CAKI-1 renal
[7] = test system: CCRF-CEM leukemia
[8] = test system: COLO 205 colon
[9] = test system: DU-145 prostate
[10] = test system: EKVX NSCLC
[11] = test system: HCC-2998 colon
[12] = test system: HCT-116 colon
[13] = test system: HCT-15 colon
[14] = test system: HOP-62 NSCLC
[15] = test system: HOP-92 NSCLC
[16] = test system: HS 578T breast
[17] = test system: HT29 colon
[18] = test system: IGROV1 ovarian
[19] = test system: K-562 leukemia
[20] = test system: KM12 colon
[21] = test system: LOX IMVI melanoma
[22] = test system: M14 melanoma
[23] = test system: MALME-3M melanoma
[24] = test system: MCF7 breast
[25] = test system: MDA-MB-231 breast
[26] = test system: MDA-MB-435
[27] = test system: MOLT-4 leukemia
[28] = test system: NCI-H226 lung
[29] = test system: NCI-H23 lung
[30] = test system: NCI-H460 lung
[31] = test system: NCI-H522 lung
[32] = test system: NCI/ADR-RES ovarian
[33] = test system: OVCAR-3 ovarian
[34] = test system: OVCAR-4 ovarian
[35] = test system: OVCAR-5 ovarian
[36] = test system: OVCAR-8 ovarian
[37] = test system: PC-3 prostate
[38] = test system: RPMI-8226 leukemia
[39] = test system: RXF 393 renal
[40] = test system: SF-268 CNS
[41] = test system: SF-295 CNS
[42] = test system: SF-539 CNS
[43] = test system: SK-MEL-2 melanoma
[44] = test system: SK-MEL-28 melanoma
[45] = test system: SK-MEL-5 melanoma
[46] = test system: SK-OV-3 ovarian
[47] = test system: SN12C renal
[48] = test system: SNB-19 CNS
[49] = test system: SNB-75 CNS
[50] = test system: SR leukemia
[51] = test system: SW-620 colon
[52] = test system: T-47D breast
[53] = test system: TK-10 renal
[54] = test system: U251 CNS
[55] = test system: UACC-257 melanoma
[56] = test system: UACC-62 melanoma
[57] = test system: UO-31 renal

O=C1NC(=C(Cl)Cl)/C(=N/S(=O)(=O)N2CCCCC2CC2(C(F)(F)F)N=N2)N1 (centres undefined)
GI50 [1]: 3.2 µM
TGI [1]: 9.62 µM
GI50 [2]: 11.4 µM
TGI [2]: 24.1 µM
GI50 [3]: 3.72 µM
TGI [3]: 14 µM
GI50 [4]: 1.74 µM
TGI [4]: 3.12 µM
GI50 [5]: 1.89 µM
TGI [5]: 3.67 µM
GI50 [6]: 1.7 µM
TGI [6]: 3.09 µM
GI50 [7]: 1.99 µM
TGI [7]: 5.57 µM
GI50 [8]: 1.89 µM
TGI [8]: 3.68 µM
GI50 [9]: 3.47 µM
TGI [9]: 11.8 µM
GI50 [10]: 2.04 µM
TGI [10]: 4.33 µM
GI50 [11]: 1.86 µM
TGI [11]: 3.38 µM
GI50 [12]: 1.73 µM
TGI [12]: 3.26 µM
GI50 [13]: 0.398 µM
TGI [13]: 1.5 µM
GI50 [14]: 3.22 µM
TGI [14]: 13.5 µM
GI50 [15]: 1.73 µM
TGI [15]: 3.61 µM
GI50 [16]: 2.83 µM
TGI [16]: 9.84 µM
GI50 [17]: 1.88 µM
TGI [17]: 3.61 µM
GI50 [18]: 1.58 µM
TGI [18]: 3.09 µM
GI50 [19]: 0.628 µM
TGI [19]: 10.8 µM
GI50 [20]: 3.14 µM
TGI [20]: 12.2 µM
GI50 [21]: 0.43 µM
TGI [21]: 1.58 µM
GI50 [22]: 1.85 µM
TGI [22]: 3.93 µM
GI50 [23]: 1.57 µM
TGI [23]: 2.99 µM
GI50 [24]: 0.769 µM
TGI [24]: 11.8 µM
GI50 [25]: 1.73 µM
TGI [25]: 3.44 µM
GI50 [26]: 2.24 µM
TGI [26]: 5.38 µM
GI50 [27]: 1.68 µM
TGI [27]: 4.43 µM
GI50 [28]: 15.5 µM
TGI [28]: 44.4 µM
GI50 [29]: 1.71 µM
TGI [29]: 3.77 µM
GI50 [30]: 3.06 µM
TGI [30]: 10.7 µM
GI50 [31]: 1.54 µM
TGI [31]: 3.13 µM
GI50 [32]: 3.45 µM
TGI [32]: 15.4 µM
GI50 [33]: 2.05 µM
TGI [33]: 4.13 µM
GI50 [34]: 1.76 µM
TGI [34]: 3.2 µM
GI50 [35]: 1.9 µM
TGI [35]: 3.84 µM
GI50 [36]: 2.21 µM
TGI [36]: 5.17 µM
GI50 [37]: 2.26 µM
TGI [37]: 6.37 µM
GI50 [38]: 0.385 µM
TGI [38]: 8.08 µM
GI50 [39]: 1.67 µM
TGI [39]: 3.22 µM
GI50 [40]: 3.35 µM
TGI [40]: 13.1 µM
GI50 [41]: 3.23 µM
TGI [41]: 12.1 µM
GI50 [42]: 1.79 µM
TGI [42]: 3.56 µM
GI50 [43]: 1.86 µM
TGI [43]: 3.9 µM
GI50 [44]: 1.85 µM
TGI [44]: 3.33 µM
GI50 [45]: 2.4 µM
TGI [45]: 5.93 µM
GI50 [46]: 15.1 µM
TGI [46]: 29.8 µM
GI50 [47]: 1.29 µM
TGI [47]: 2.57 µM
GI50 [48]: 2 µM
TGI [48]: 4.53 µM
GI50 [49]: 3.5 µM
TGI [49]: 17.4 µM
GI50 [50]: 0.431 µM
TGI [50]: 2.67 µM
GI50 [51]: 1.67 µM
TGI [51]: 3.24 µM
GI50 [52]: 4.16 µM
TGI [52]: 22.1 µM
GI50 [53]: 4.53 µM
TGI [53]: 14.2 µM
GI50 [54]: 1.86 µM
TGI [54]: 3.67 µM
GI50 [55]: 1.96 µM
TGI [55]: 4.48 µM
GI50 [56]: 1.74 µM
TGI [56]: 3.57 µM
GI50 [57]: 2.69 µM
TGI [57]: 12.4 µM
